Article PMC10230504, “Versatile Chemo-Biocatalytic Cascade Driven by a Thermophilic and Irreversible C–C Bond-Forming α-Oxoamine Synthase” (ACS Sustainable Chemistry & Engineering, 2023)

Molecular target: T1, ThAOS (Thermus thermophilus, UniProt Q5SHZ8)
T1 construct: gene TTHA1582; recombinant, codon-optimized clone (GenScript), expressed in E. coli BL21 (DE3), purified
T1 sequence (Q5SHZ8 2-395): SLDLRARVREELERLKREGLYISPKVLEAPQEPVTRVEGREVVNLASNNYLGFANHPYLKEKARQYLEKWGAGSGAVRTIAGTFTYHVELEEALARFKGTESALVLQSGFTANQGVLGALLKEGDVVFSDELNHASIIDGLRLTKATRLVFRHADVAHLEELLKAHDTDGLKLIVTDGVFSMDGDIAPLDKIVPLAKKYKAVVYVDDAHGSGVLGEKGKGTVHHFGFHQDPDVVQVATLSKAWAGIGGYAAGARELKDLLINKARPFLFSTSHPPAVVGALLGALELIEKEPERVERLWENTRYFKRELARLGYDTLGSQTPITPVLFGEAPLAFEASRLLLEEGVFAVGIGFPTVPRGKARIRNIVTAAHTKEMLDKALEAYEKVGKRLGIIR
Assay: DTNB assay of CoASH release; product confirmed by mass spectrometry
Format: biochemical
Conditions: co-substrate acyl-CoA; 50 °C

`NCC(=O)O` [Gly] was tested, and the “DTNB assay of CoASH release; product confirmed by mass spectrometry” value was “ThAOS was active with AAs (S)-2-aminobutyric acid (L-Aba), L-Ala, Gly and L-Ser”.
